Experimental data: the supplement of paper PMC10307832

Assays:
Assay in all cases: relative viability (nuclei count vs DMSO), 5 days (fraction); higher = more cells survive
[1] = compound: C[C@@]1(C(=O)Nc2ccc(F)nc2)CCCN1c1nc(Nc2cc(C3CC3)n[nH]2)c2cccn2n1 + CC(=O)Nc1cccc(-n2c(=O)n(C3CC3)c(=O)c3c(Nc4ccc(I)cc4F)n(C)c(=O)c(C)c32)c1 [Trametinib] (partner 0.02 µM)
Outline: (§1)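 Lung cancer cell lines, seeded in 1536-well plates, were treated the following day by pin tool with a single drug or with five library-drug doses (not always all listed) in √10 steps on top of a fixed anchor-drug dose. Cells were fixed and nuclei stained in one step after 5 days, and nuclei were counted. Relative viability is the nuclei count for treated wells divided by that for vehicle wells, reported as medians of duplicate plates.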

[2] = compound: C[C@@]1(C(=O)Nc2ccc(F)nc2)CCCN1c1nc(Nc2cc(C3CC3)n[nH]2)c2cccn2n1 + COc1cc2c(Oc3ccc(NC(=O)C4(C(=O)Nc5ccc(F)cc5)CC4)cc3F)ccnc2cc1OCCCN1CCOCC1 [Foretinib] (partner 0.25 µM)
Outline: as §1

[3] = compound: C[C@@]1(C(=O)Nc2ccc(F)nc2)CCCN1c1nc(Nc2cc(C3CC3)n[nH]2)c2cccn2n1 + CS(=O)(=O)N1CCN(Cc2cc3nc(-c4cccc5[nH]ncc45)nc(N4CCOCC4)c3s2)CC1 [Pictilisib] (partner 1 µM)
Outline: as §1

[4] = compound: CC1(C)CNc2cc(NC(=O)c3cccnc3NCc3ccncc3)ccc21 [Motesanib] + Cc1nc(Nc2ncc(C(=O)Nc3c(C)cccc3Cl)s2)cc(N2CCN(CCO)CC2)n1 [Dasatinib] (partner 0.075 µM)
Outline: as §1

NCI-H727 gave a relative viability ([1]; first compound 0.04 µM) of 0.312, a relative viability ([1]; first compound 0.1265 µM) of 0.283 and a relative viability ([1]; first compound 0.4 µM) of 0.267. For the same cell line, the relative viability ([1]; first compound 1.265 µM) was 0.221, the relative viability ([2]; first compound 0.04 µM) was 0.694 and the relative viability ([2]; first compound 0.1265 µM) was 0.396. For the same cell line, the relative viability ([2]; first compound 0.4 µM) was 0.357, the relative viability ([2]; first compound 1.265 µM) was 0.324 and the relative viability ([3]; first compound 0.04 µM) was 0.328. It also gave a relative viability ([3]; first compound 0.1265 µM) of 0.179, a relative viability ([3]; first compound 0.4 µM) of 0.306 and a relative viability ([3]; first compound 1.265 µM) of 0.155. The relative viability ([4]; first compound 0.01 µM) was 0.39, the relative viability ([4]; first compound 0.03162 µM) was 0.241 and the relative viability ([4]; first compound 0.1 µM) was 0.404. For the same cell line, the relative viability ([4]; first compound 0.3162 µM) was 0.448 and the relative viability ([4]; first compound 1 µM) was 0.34.

NCI-H441 showed a relative viability ([1]; first compound 0.04 µM) of 0.23, a relative viability ([1]; first compound 0.1265 µM) of 0.164 and a relative viability ([1]; first compound 0.4 µM) of 0.21. The relative viability ([1]; first compound 1.265 µM) was 0.211, the relative viability ([2]; first compound 0.04 µM) was 0.631 and the relative viability ([2]; first compound 0.1265 µM) was 0.46. It also gave a relative viability ([2]; first compound 0.4 µM) of 0.599, a relative viability ([2]; first compound 1.265 µM) of 0.707 and a relative viability ([3]; first compound 0.04 µM) of 0.455. It also gave a relative viability ([3]; first compound 0.1265 µM) of 0.337, a relative viability ([3]; first compound 0.4 µM) of 0.36 and a relative viability ([3]; first compound 1.265 µM) of 0.375. It also gave a relative viability ([4]; first compound 0.01 µM) of 0.594, a relative viability ([4]; first compound 0.03162 µM) of 0.627 and a relative viability ([4]; first compound 0.1 µM) of 0.604. For the same cell line, the relative viability ([4]; first compound 0.3162 µM) was 0.613 and the relative viability ([4]; first compound 1 µM) was 0.642.

LOU-NH91 was tested, and the relative viability ([1]; first compound 0.04 µM) was 0.737, the relative viability ([1]; first compound 0.1265 µM) was 0.845 and the relative viability ([1]; first compound 0.4 µM) was 0.709. The relative viability ([1]; first compound 1.265 µM) was 0.755, the relative viability ([2]; first compound 0.04 µM) was 0.938 and the relative viability ([2]; first compound 0.1265 µM) was 0.94. For the same cell line, the relative viability ([2]; first compound 0.4 µM) was 0.86, the relative viability ([2]; first compound 1.265 µM) was 0.948 and the relative viability ([3]; first compound 0.04 µM) was 0.492. For the same cell line, the relative viability ([3]; first compound 0.1265 µM) was 0.478, the relative viability ([3]; first compound 0.4 µM) was 0.452 and the relative viability ([3]; first compound 1.265 µM) was 0.448. For the same cell line, the relative viability ([4]; first compound 0.01 µM) was 0.515, the relative viability ([4]; first compound 0.03162 µM) was 0.536 and the relative viability ([4]; first compound 0.1 µM) was 0.621. For the same cell line, the relative viability ([4]; first compound 0.3162 µM) was 0.594 and the relative viability ([4]; first compound 1 µM) was 0.586.

Work on NCI-H3122 yielded a relative viability ([1]; first compound 0.04 µM) of 0.181, a relative viability ([1]; first compound 0.1265 µM) of 0.202 and a relative viability ([1]; first compound 0.4 µM) of 0.181. The relative viability ([1]; first compound 1.265 µM) was 0.2, the relative viability ([2]; first compound 0.04 µM) was 0.978 and the relative viability ([2]; first compound 0.1265 µM) was 0.937. For the same cell line, the relative viability ([2]; first compound 0.4 µM) was 0.942, the relative viability ([2]; first compound 1.265 µM) was 0.893 and the relative viability ([3]; first compound 0.04 µM) was 0.479. It also gave a relative viability ([3]; first compound 0.1265 µM) of 0.374, a relative viability ([3]; first compound 0.4 µM) of 0.479 and a relative viability ([3]; first compound 1.265 µM) of 0.393. The relative viability ([4]; first compound 0.01 µM) was 0.705, the relative viability ([4]; first compound 0.03162 µM) was 0.825 and the relative viability ([4]; first compound 0.1 µM) was 0.677. The relative viability ([4]; first compound 0.3162 µM) was 0.893 and the relative viability ([4]; first compound 1 µM) was 0.916.

Work on NCI-H460 yielded a relative viability ([1]; first compound 0.04 µM) of 0.159, a relative viability ([1]; first compound 0.1265 µM) of 0.0315 and a relative viability ([1]; first compound 0.4 µM) of 0.0726. The relative viability ([1]; first compound 1.265 µM) was 0.0967, the relative viability ([2]; first compound 0.04 µM) was 1.06 and the relative viability ([2]; first compound 0.1265 µM) was 0.939. For the same cell line, the relative viability ([2]; first compound 0.4 µM) was 1.03, the relative viability ([2]; first compound 1.265 µM) was 0.87 and the relative viability ([3]; first compound 0.04 µM) was 0.299. For the same cell line, the relative viability ([3]; first compound 0.1265 µM) was 0.202, the relative viability ([3]; first compound 0.4 µM) was 0.184 and the relative viability ([3]; first compound 1.265 µM) was 0.236. For the same cell line, the relative viability ([4]; first compound 0.01 µM) was 0.406, the relative viability ([4]; first compound 0.03162 µM) was 0.481 and the relative viability ([4]; first compound 0.1 µM) was 0.525. For the same cell line, the relative viability ([4]; first compound 0.3162 µM) was 0.63 and the relative viability ([4]; first compound 1 µM) was 0.626.

NCI-H650 showed a relative viability ([1]; first compound 0.04 µM) of 0.867, a relative viability ([1]; first compound 0.1265 µM) of 0.572 and a relative viability ([1]; first compound 0.4 µM) of 0.743. It also gave a relative viability ([1]; first compound 1.265 µM) of 0.611, a relative viability ([2]; first compound 0.04 µM) of 1.02 and a relative viability ([2]; first compound 0.1265 µM) of 0.738. It also gave a relative viability ([2]; first compound 0.4 µM) of 0.819, a relative viability ([2]; first compound 1.265 µM) of 0.782 and a relative viability ([3]; first compound 0.04 µM) of 0.916. For the same cell line, the relative viability ([3]; first compound 0.1265 µM) was 0.651, the relative viability ([3]; first compound 0.4 µM) was 0.689 and the relative viability ([3]; first compound 1.265 µM) was 0.722. For the same cell line, the relative viability ([4]; first compound 0.01 µM) was 0.399, the relative viability ([4]; first compound 0.1 µM) was 0.442 and the relative viability ([4]; first compound 0.3162 µM) was 0.501. For the same cell line, the relative viability ([4]; first compound 1 µM) was 0.444.

With NCI-H661 the relative viability ([1]; first compound 0.04 µM) was 0.605, the relative viability ([1]; first compound 0.1265 µM) was 0.55 and the relative viability ([1]; first compound 0.4 µM) was 0.591. The relative viability ([1]; first compound 1.265 µM) was 0.555, the relative viability ([2]; first compound 0.04 µM) was 1.04 and the relative viability ([2]; first compound 0.1265 µM) was 1.03. The relative viability ([2]; first compound 0.4 µM) was 1.06, the relative viability ([2]; first compound 1.265 µM) was 0.936 and the relative viability ([3]; first compound 0.04 µM) was 0.432. For the same cell line, the relative viability ([3]; first compound 0.1265 µM) was 0.355, the relative viability ([3]; first compound 0.4 µM) was 0.408 and the relative viability ([4]; first compound 0.01 µM) was 0.818. The relative viability ([4]; first compound 0.03162 µM) was 0.842, the relative viability ([4]; first compound 0.1 µM) was 0.833 and the relative viability ([4]; first compound 0.3162 µM) was 0.977. It also gave a relative viability ([4]; first compound 1 µM) of 0.861.

In the case of NCI-H1793, the relative viability ([1]; first compound 0.04 µM) was 0.4, the relative viability ([1]; first compound 0.1265 µM) was 0.355 and the relative viability ([1]; first compound 0.4 µM) was 0.392. It also gave a relative viability ([1]; first compound 1.265 µM) of 0.459, a relative viability ([2]; first compound 0.04 µM) of 0.664 and a relative viability ([2]; first compound 0.1265 µM) of 0.566. For the same cell line, the relative viability ([2]; first compound 1.265 µM) was 0.715, the relative viability ([3]; first compound 0.04 µM) was 0.338 and the relative viability ([3]; first compound 0.1265 µM) was 0.284. It also gave a relative viability ([3]; first compound 0.4 µM) of 0.323, a relative viability ([3]; first compound 1.265 µM) of 0.293 and a relative viability ([4]; first compound 0.01 µM) of 0.393. It also gave a relative viability ([4]; first compound 0.03162 µM) of 0.388, a relative viability ([4]; first compound 0.1 µM) of 0.376 and a relative viability ([4]; first compound 0.3162 µM) of 0.416. For the same cell line, the relative viability ([4]; first compound 1 µM) was 0.405.

NCI-H1734 gave a relative viability ([1]; first compound 0.04 µM) of 0.527, a relative viability ([1]; first compound 0.1265 µM) of 0.512 and a relative viability ([1]; first compound 0.4 µM) of 0.403. For the same cell line, the relative viability ([1]; first compound 1.265 µM) was 0.563, the relative viability ([2]; first compound 0.04 µM) was 0.603 and the relative viability ([2]; first compound 0.1265 µM) was 0.494. For the same cell line, the relative viability ([2]; first compound 0.4 µM) was 0.336, the relative viability ([2]; first compound 1.265 µM) was 0.408 and the relative viability ([3]; first compound 0.04 µM) was 0.381. The relative viability ([3]; first compound 0.1265 µM) was 0.301, the relative viability ([3]; first compound 0.4 µM) was 0.321 and the relative viability ([3]; first compound 1.265 µM) was 0.296. It also gave a relative viability ([4]; first compound 0.01 µM) of 0.515, a relative viability ([4]; first compound 0.03162 µM) of 0.448 and a relative viability ([4]; first compound 0.3162 µM) of 0.463. It also gave a relative viability ([4]; first compound 1 µM) of 0.405.

With LXF-289 the relative viability ([1]; first compound 0.04 µM) was 0.67, the relative viability ([1]; first compound 0.1265 µM) was 0.619 and the relative viability ([1]; first compound 0.4 µM) was 0.645. For the same cell line, the relative viability ([1]; first compound 1.265 µM) was 0.717, the relative viability ([2]; first compound 0.04 µM) was 0.949 and the relative viability ([2]; first compound 0.1265 µM) was 0.945. For the same cell line, the relative viability ([2]; first compound 0.4 µM) was 0.937, the relative viability ([2]; first compound 1.265 µM) was 0.991 and the relative viability ([3]; first compound 0.04 µM) was 0.739. For the same cell line, the relative viability ([3]; first compound 0.1265 µM) was 0.657, the relative viability ([3]; first compound 0.4 µM) was 0.567 and the relative viability ([3]; first compound 1.265 µM) was 0.628. The relative viability ([4]; first compound 0.01 µM) was 0.258, the relative viability ([4]; first compound 0.03162 µM) was 0.148 and the relative viability ([4]; first compound 0.1 µM) was 0.257. It also gave a relative viability ([4]; first compound 0.3162 µM) of 0.256 and a relative viability ([4]; first compound 1 µM) of 0.267.
